# Target: T1, hROMK (hKir1.1) (Homo sapiens, UniProt P48048)
# T1 construct: expressed in transfected cells
# T1 sequence (P48048 1-391): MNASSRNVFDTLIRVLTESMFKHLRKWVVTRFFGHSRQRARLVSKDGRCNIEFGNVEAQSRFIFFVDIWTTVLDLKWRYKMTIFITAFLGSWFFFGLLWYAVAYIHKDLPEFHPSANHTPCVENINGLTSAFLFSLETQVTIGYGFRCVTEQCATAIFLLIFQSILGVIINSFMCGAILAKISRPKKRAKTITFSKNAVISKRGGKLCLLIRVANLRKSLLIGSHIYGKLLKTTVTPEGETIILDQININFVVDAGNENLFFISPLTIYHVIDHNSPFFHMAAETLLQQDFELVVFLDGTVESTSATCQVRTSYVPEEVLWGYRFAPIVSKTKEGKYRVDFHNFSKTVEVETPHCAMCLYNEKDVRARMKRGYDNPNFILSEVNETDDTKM
# Assay: Thallium Flux Assay (ROMK channel functional thallium flux assay, FLIPR-Tetra)
# Assay type: cell-based
# Conditions: HEK293 cells stably expressing hROMK (hKir1.1); FluxOR thallium flux, 30 min compound incubation; concentration inhibiting 50% of ROMK thallium flux signal
# Procedure: The following Thallium Flux Assay was performed on each of the final product compounds in the Examples.
# HEK293 cells stably expressing hROMK (hKir1.1) were grown at 37° C. in a 10% CO2 humidified incubator in complete growth media: Dulbecco's Modified Eagle Medium supplemented with non-essential amino acids, Penicillin/Streptomycin/Glutamine, G418 and FBS. At >80% confluency, the media was aspirated from the flask and rinsed with 10 mL calcium/magnesium-free phosphate buffered saline (PBS). 5 mL of 1× trypsin (prepared in Ca/Mg Free PBS) was added to T-225 flask and the flask was returned to 37° C./CO2 incubator for 2-3 minutes. To dislodge the cells, the side of the flask was gently banged with one's hand. The cells were completely titrated and then the cells were transferred to 25 mL complete media, centrifuged at 1,500 rpm for 6 min followed by resuspension in complete growth media, and the cell concentration was determined. For typical re-seeding, 4E6 cells/T-225 flask will attain >80% confluency in 4 days. Under ideal growth conditions and appropriate tissue culture practices, this cell line is stable for 40-45 passages.
# Compound Buffer (per microplate): 20 mL Probenecid/Assay Buffer; 0.3 mM ouabain (10 mM ouabain in water can be stored in amber bottle/aluminum foil at room temperature); Test compound
# Stimulant Buffer (prepared at 5× final concentration in 1× FluxOR™Chloride-Free Buffer): 7.5 mM thallium sulfate and 0.75 mM potassium sulfate (to give a final assay concentration of 3 mM Thallium/0.3 mM potassium). Store at 4° C. when not in use. If kept sterile, this solution is good for months.
# The ROMK channel functional thallium flux assay was performed in 384 wells, using the FLIPR-Tetra instrument. HEK-hKir1.1 cells were seeded in Poly-D-Lysine microplates and kept in a 37° C.-10% CO2 incubator overnight. On the day of the experiment, the growth media was replaced with the FluxOR™ reagent loading buffer and incubated, protected from light, at ambient temperature (23-25° C.) for 90 min. The loading buffer was replaced with assay buffer±test compound followed by 30 min incubation at ambient temperature, where the thallium/potassium stimulant was added to the microplate.
# • 1. Seed HEK-hKir1.1 cells (50 μl at 20,000 cells/well) in 384-well PDL coated Microplates • 2. Allow cells to adhere overnight in humidified 37° C./10% CO2 incubator • 3. Completely remove cell growth media from microplate and replace with 25 μl loading buffer • 4. Incubate Microplate at room temperature, protected form light, for 90 min • 5. Remove loading buffer and replace with 25 μl 1× Assay Buffer±test compound. • 6. Incubate microplate at room temperature, protected from light, for 30 min • 7. At FLIPR-Tetra 384: Add stimulant (thallium/potassium) solution to microplate and monitor fluorescence. Excitation=400 nm, Emission=460 & 580 nm. Collect data for ˜10 min.
# The fluorescence intensity of wells containing 3 μM of a standard control ROMK inhibitor of the present invention was used to define the ROMK-sensitive component of thallium flux. Fluorescence in the presence of test compounds was normalized to control values to provide % fluorescence change. IC50 values represent the concentration of compound that inhibited 50% of the ROMK thallium flux signal.
row,SMILES,IC50 [µM]
1,Cc1c([C@@H](O)CN2CCC3(CC2)CCN(c2nc4cc(F)ccc4o2)C3)ccc2c1COC2=O [Example 4],0.779
2,N#Cc1ccc(C(O)CN2CCC3(CCN(c4ccc5nncn5n4)CC3)C2)nc1 (stereo not drawn) [Example 63],0.154
3,"Cc1c([C@@H](O)CN2CCC3(CCN(c4ccc5nncn5n4)CC3)C2)ccc2c1COC2=O [Example 70, (R)-5-(2-(8-([1,2,4]triazolo[4,3-b]pyridazin-6-yl)-2,8-diazaspiro[4.5]decan-2-yl)-1-hydroxyethyl)-4-methylisobenzofuran-1(3H)-one]",0.031
4,N#Cc1ccc(C(O)CN2CCC3(CC2)CC(=O)N(c2ccc4nncn4n2)C3)nc1 (stereo not drawn) [Example 59],0.412
5,Cc1nc(-n2cnnn2)ccc1[C@@H](O)CN1CCC2(CC1)CCN(c1ccc3c(c1C)COC3=O)C2 [Example 78],0.622
6,Cc1cc(C#N)c(F)cc1C(O)CN1CCC2(CC1)CCN(c1ccc3nncn3n1)C2 (racemic) [Example 55],0.026
7,COc1cc([C@@H](F)CN2CCC3(CC2)CCN(c2ccc4nncn4n2)C3)ncc1C#N [Example 21],0.236
8,Cc1nc(C(O)CN2CCC3(CCN(c4ccc5nncn5n4)CC3)C2)ccc1C#N (stereo not drawn) [Example 68],0.0859
9,Cc1c([C@@H](O)CN2CCC3(CC2)CC(=O)N(c2ccc4nc(C(F)(F)F)nn4c2)C3)ccc2c1COC2=O [Example 40],0.894
10,COc1cc([C@H](O)CN2CCC3(CCN(c4ccc5nncn5n4)CC3)C2)ncc1C#N [Example 64],0.0918
11,COc1cc(C(O)CN2CCC3(CC2)CCN(c2ccc4nncn4n2)C3)ccc1C#N (stereo not drawn) [Example 51],0.0487
12,COc1cc([C@@H](O)CN2CCC3(CC2)CCN(c2ccc4nncn4n2)C3=O)ncc1C#N [Example 75],0.608
13,COc1cc([C@H](CN2CCC3(CC2)CCN(c2ccc4nncn4n2)C3)OC(=O)C2CC2)ncc1C#N [Example 22],0.212
14,N#Cc1ccc(C(O)CN2CCC3(CC2)CCN(c2ccc4nncn4n2)C3)nc1 (stereo not drawn) [Example 42],0.117
15,"Cc1c([C@@H](O)CN2CCC3(CC2)CCN(c2ccc4c(c2C)COC4=O)C3)ccc2c1COC2=O [Example 79, (R)-5-(1-hydroxy-2-(2-(4-methyl-1-oxo-1,3-dihydroisobenzofuran-5-yl)-2,8-diazaspiro[4.5]decan-8-yl)ethyl)-4-methylisobenzofuran-1(3H)-one]",0.019
16,"COc1cc([C@H](O)CN2CCC3(CC2)CCN(c2ccc4c(c2C)COC4=O)C3)ncc1C#N [Example 77, (R)-6-(1-hydroxy-2-(2-(4-methyl-1-oxo-1,3-dihydroisobenzofuran-5-yl)-2,8-diazaspiro[4.5]decan-8-yl)ethyl)-4-methoxynicotinonitrile]",0.0664
17,OC(CN1CCC2(CCN(c3ccc4nncn4n3)CC2)C1)c1ccc(-n2cnnn2)nc1 (racemic) [Example 69],0.0726
18,Cc1c([C@@H](O)CN2CCC3(CC2)CCN(c2nc4c(S(N)(=O)=O)cccc4s2)C3)ccc2c1COC2=O [Example 6],0.304
19,Cc1c([C@@H](O)CN2CCC3(CC2)CCN(C2=Nc4ccccc4C4=NCCN42)C3)ccc2c1COC2=O [Example 7],0.62
20,COc1cc([C@H](O)CN2CCC3(CC2)CCN(c2ccc4nncn4n2)C3)ncc1C#N [Example 44],0.124
21,COc1cc(C(O)CN2CCC3(CC2)CCN(c2ccc4nncn4n2)C3)ccc1C#N (stereo not drawn) [Example 50],0.0415
22,COc1cc([C@@H](O)CN2CCC3(CC2)CC(=O)N(c2ccc4nncn4n2)C3)ncc1C#N [Example 61],0.228
23,"Cc1nc(C(O)CN2CCC3(CCN(c4ccc5nncn5n4)CC3)C2)ccc1C#N (stereo not drawn) [Example 67, 6-(2-(8-([1,2,4]triazolo[4,3-b]pyridazin-6-yl)-2,8-diazaspiro[4.5]decan-2-yl)-1-hydroxyethyl)-2-methylnicotinonitrile]",0.0642
24,COc1cc(C(O)CN2CCC3(CC2)CCN(c2ccc4nncn4n2)C3)c(Cl)cc1C#N (stereo not drawn) [Example 56],0.0276
25,Cc1c([C@@H](O)CN2CCC3(CC2)CCN(c2ccc4nnc(C5CC5)n4n2)C3)ccc2c1COC2=O [Example 14],0.204
26,Cc1c([C@@H](O)CN2CCC3(CCCN(c4ccc5nncn5n4)C3)CC2)ccc2c1COC2=O [Example 76],0.0976

# Now from value to compound:
row,IC50 [µM],SMILES
1,0.0747,"Cc1c([C@@H](O)CN2CCC3(CC2)CCN(c2ccc4nncn4n2)C3)ccc2c1COC2=O [Example 5, (R)-5-(2-(2-([1,2,4]triazolo[4,3-b]pyridazin-6-yl)-2,8-diazaspiro[4.5]decan-8-yl)-1-hydroxyethyl)-4-methylisobenzofuran-1 (3H)-one]"
2,0.19,Cc1c([C@@H](O)CN2CCC3(CC2)CCN(c2cc4cncnc4s2)C3=O)ccc2c1COC2=O [Example 36]
3,0.0273,"Cc1c([C@@H](O)CN2CCC3(CC2)CCN(c2cnc4nonc4c2)C3)ccc2c1COC2=O [Example 92, (R)-5-(2-(2-([1,2,5]oxadiazolo[3,4-b]pyridin-6-yl)-2,8-diazaspiro[4.5]decan-8-yl)-1-hydroxyethyl)-4-methylisobenzofuran-1(3H)-one]"
4,0.537,Cc1c([C@@H](O)CN2CCC3(CC2)CCN(c2ccc4ncnn4c2)C3=O)ccc2c1COC2=O [Example 35]
5,0.0832,Cc1c([C@@H](O)CN2CCC3(CC2)CCN(c2cnc4snnc4c2)C3=O)ccc2c1COC2=O [Example 30]
6,0.0549,"Cc1c([C@@H](O)CN2CCC3(CC2)CCN(c2ccnc4c2OCO4)C3=O)ccc2c1COC2=O [Example 38, (R)-2-([1,3]dioxolo[4,5-b]pyridin-7-yl)-8-(2-hydroxy-2-(4-methyl-1-oxo-1,3-dihydroisobenzofuran-5-yl)ethyl)-2,8-diazaspiro[4.5]decan-1-one]"
7,0.342,"Cc1c([C@@H](O)CN2CCC3(CC2)CCN(c2ccc4nsnc4c2)C3)ccc2c1COC2=O [Example 25, (R)-5-(2-(2-(benzo[c][1,2,5]thiadiazol-5-yl)-2,8-diazaspiro[4.5]decan-8-yl)-1-hydroxyethyl)-4-methylisobenzofuran-1 (3H)-one]"
8,0.26,Cc1c([C@@H](O)CN2CCC3(CC2)CCN(c2ccn4cncc4c2)C3=O)ccc2c1COC2=O [Example 87]
9,0.301,"Cc1c([C@@H](O)CN2CCC3(CC2)CCN(c2cnc4snnc4c2)C3)ccc2c1COC2=O [Example 29, (R)-5-(2-(2-([1,2,3]thiadiazolo[5,4-b]pyridin-6-yl)-2,8-diazaspiro[4.5]decan-8-yl)-1-hydroxyethyl)-4-methylisobenzofuran-1(3H)-one]"
10,0.85,"Cc1c([C@@H](O)CN2CCC3(CC2)CCN(c2cnc4nncn4c2)C3)ccc2c1COC2=O [Example 24, (R)-5-(2-(2-([1,2,4]triazolo[4,3-a]pyrimidin-6-yl)-2,8-diazaspiro[4.5]decan-8-yl)-1-hydroxyethyl)-4-methylisobenzofuran-1(3H)-one]"
11,0.199,"COC1OC(=O)c2ccc(N3CCC4(CCN(C[C@H](O)c5ccc6c(c5C)COC6=O)CC4)C3)cc21 (stereo partly drawn) [Example 26, 5-((1R)-1-hydroxy-2-(2-(3-methoxy-1-oxo-1,3-dihydroisobenzofuran-5-yl)-2,8-diazaspiro[4.5]decan-8-yl)ethyl)-4-methylisobenzofuran-1(3H)-one]"
12,0.109,Cc1c([C@@H](O)CN2CCC3(CC2)CC(=O)N(c2cnc4nonc4c2)C3)ccc2c1COC2=O [Example 94]
13,0.235,Cc1c([C@@H](O)CN2CCC3(CC2)CCN(c2nccn4cnnc24)C3)ccc2c1COC2=O [Example 3]

# Reference: patent US20170275302A1, “INHIBITORS OF THE RENAL OUTER MEDULLARY POTASSIUM CHANNEL” (Merck Sharp & Dohme Corp., priority 2014, published 2017)
